This is an account of results in patent US9388444B2, “Use of glucosyltransferase gene” (The United States of America, as represented by the …, priority 2013, dated 2016).

One data set relates to Gtf-1. As to the kind of experiment: In vitro HPLC-MS glucosyltransferase activity assay with sonicated extract of recombinant S. cerevisiae [pYES2/NT/gft1]. Format: biochemical, C. bombicola. The settings on record: for glucosyltransferase enzyme activity toward lipid substrate (appearance of glucoside product): UDP-glucose as sugar substrate, 30° C., 3 hours, HPLC-MS, product absent with control [pYES2/NT/lacZ] extract; for effect of lipid stock solvent on enzyme activity: solvent used to prepare 50 mM lipid stock solution. The protocol: An in vitro enzyme activity assay is performed to verify the functional property of Gtf-1 expressed in the recombinant S. cereviciae [pYES2/NT/gft1]. In this plasmid, the expression of gtf-1 is regulated by a yeast GAL1 promoter that is inducible by the addition of galactose (FIG. 1). An HPLC-MS-based method is developed to assay for glucosyltransferase activity in recombinant S. cerevisiae expressing C. bombicola gft-1 gene cloned in the pYES2/NT/gft1 plasmid construct. As control samples, S. cerevisiae transformed with pYES2/NT/gft1CON and pYES2/NT/lacZ are included in the study. The growing and induction of S. cerevisiae cells is performed according to the protocol described in the manual of pYES2/NT Yeast Expression System (Invitrogen, Carlsbad, Calif.). Briefly, cells from long-term (−80° C.) storage stock cultures are streaked on Yeast Extract Peptone Dextrose (YPD) agar solid medium (1% w/v yeast extract, 2% w/v peptone, 2% w/v dextrose (D-(+)glucose), 2% w/v agar) and grown at 30° C. for 1 to 2 days. A single colony is picked to inoculate 5 ml of SC-U+Glu(2%) in a 25-ml Erlenmeyer flask. The culture is grown overnight at 30° C. and 200 rpm. A volume of the overnight culture, which is based on achieving a theoretical absorbance at 600 nm (A600 nm)=0.4 in the fresh culture, is added to 50 ml of SC-U+Raf(2%) medium in a 125-ml Erlenmeyer. After an overnight incubation (30° C., 200 rpm), A600 nm values of the cultures are recorded. Five ml of sterile 20% (w/v) D-(+)-galactose are added to each culture to induce expression of the cloned gene, and the cells are incubated for 4 hours at 30° C., 200 rpm. Cells are then harvested by centrifugation (Sorvall RC-5B Plus centrifuge; 5,000×g; 10 min; 4° C.) (ThermoFisher Scientific, Waltham, Mass.) with the supernatant being decanted. The pelleted cells are resuspended and washed with 5 ml cold water, undergo another centrifugation using same parameters with removal of the supernatant after centrifugation, and are resuspended in a volume of a Breaking Buffer (50 mM sodium phosphate at pH 7.4; 1 mM Na-EDTA; 5% v/v glycerol; 1 mM phenylmethylsulfonylfluoride (PMSF) which is added immediately before use) in 15-mL Corex centrifugation tube to give a theoretical A600 nm of 200. Cell suspension can be stored at −20° C. overnight and still retain glucosyltransferase activity. Cells are broken by sonication (Sonicator model W-385 equipped with a microtip probe; Heat-Systems, Inc., Farmingdale, N.Y.) for 10 to 15 seconds (with 30 seconds sample cooling on ice-water bath) at maximum probe-tolerant power setting. The sonicated cell suspension (SCS) is used in the reaction mixtures to assay for glycosylation activity.
The reaction mixture for glycosylation assay is largely based on that described by Saerens et al. 2011b. The following procedure is used: 10 μl of a 50 mM-lipid substrate stock solution (which is prepared in one of the following solvents: DMF (dimethylformamide), DMSO ([…]), THF (tetrahydrofuran), ethylacetate, or ethanol) and 10 μl of a 50 mM-UDP-glucose solution (Sigma Aldrich, St. Louis, Mo.) are added to 30 μl of 50 mM potassium phosphate buffer (pH 7.5) in a 13×100 mm test tube on ice. 200 μl of the sonicated cell suspension is then added to the mixture of the two substrates. The final reaction mixture (250 μl) is incubated at 30° C. for 3 hours with frequent manual mixing (approximately every 10-15 minutes). The reaction is stopped by the addition of 200 μl of 2N HCl, followed by vigorous vortex mixing for approximately 30 to 60 seconds. The reaction mixture is extracted with 1 to 2 ml 1:1 v/v ethylether/ethylacetate mixture by vigorous vortex mixing. The tube is placed on lab bench undisturbed for phase separation to occur. Using a Hamilton syringe, the organic phase (upper layer) is carefully removed and is placed into a clean test tube (12×75 mm). The solvent is then evaporated by passing a stream of nitrogen gas over the solution, leaving a dry residue. […]

For data set [1] the following is noted: aqueous solution of sophorolipid; cited from earlier work.

On to `CC[C@H](CC[C@@H](C)[C@H]1CC[C@H]2[C@@H]3CC=C4C[C@@H](O)CC[C@]4(C)[C@H]3CC[C@]12C)C(C)C` [β-sitosterol], for which the “glucosyltransferase enzyme activity toward lipid substrate (appearance of glucoside product)” value in the data set with Gtf-1 is recorded as “give the same results”.

Take 17-hydroxy-oleate [17-OH oleate]: the “glucosyltransferase enzyme activity toward lipid substrate (appearance of glucoside product)” value in the data set with Gtf-1 is “presence of glucosyltransferase enzyme activity is confirmed”. As to `CC[C@H](/C=C/[C@@H](C)[C@H]1CC[C@H]2[C@@H]3CC=C4C[C@@H](O)CC[C@]4(C)[C@H]3CC[C@]12C)C(C)C` [stigmasterol], the “glucosyltransferase enzyme activity toward lipid substrate (appearance of glucoside product)” value in the data set on Gtf-1 was “give the same results”.

On to `CC(C)CCC[C@@H](C)[C@H]1CC[C@H]2[C@@H]3CC=C4C[C@@H](O)CC[C@]4(C)[C@H]3CC[C@]12C` [cholesterol], for which the “glucosyltransferase enzyme activity toward lipid substrate (appearance of glucoside product)” value in the data set on Gtf-1 is recorded as “presence of glucosyltransferase enzyme activity is confirmed”. For `C1CCOC1` [THF, tetrahydrofuran], the “effect of lipid stock solvent on enzyme activity” value with Gtf-1 is listed as “inhibits enzyme activity”.

On to `CN(C)C=O` [DMF, dimethylformamide], for which the “effect of lipid stock solvent on enzyme activity” value with Gtf-1 is on record as “without adversely impacting on enzymatic activity”. For sophorolipid, the Surface tension in data set [1] is given as 30-40 mN/m. Regarding `CC(C)[C@@H](C)/C=C/[C@@H](C)[C@H]1CC[C@H]2C3=CC=C4C[C@@H](O)CC[C@]4(C)[C@H]3CC[C@]12C` [ergosterol], the “glucosyltransferase enzyme activity toward lipid substrate (appearance of glucoside product)” value in the data set with Gtf-1 was “give the same results”.
